Measured values taken from PubChem BioAssay (NCI).
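48-hour exposure; five concentrations; linearly interpolated endpoints. GI50 = concentration required for 50% inhibition of growth. Definition used: TGI = concentration required for complete inhibition of growth.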

Columns and labels:
Assay in all cases: growth of human tumour cells (NCI), 48 h
[1] = system: HCT-116 colon
[2] = system: HCC-2998 colon
[3] = system: MDA-MB-468 breast
[4] = system: A549 NSCLC
[5] = system: MALME-3M melanoma
[6] = system: U251 CNS
[7] = system: NCI-H226 lung
[8] = system: OVCAR-4 ovarian
[9] = system: MCF7 breast
[10] = system: OVCAR-3 ovarian
[11] = system: BT-549 breast
[12] = system: ACHN renal
[13] = system: RXF 393 renal
[14] = system: OVCAR-5 ovarian
[15] = system: HOP-62 NSCLC
[16] = system: SK-MEL-2 melanoma
[17] = system: HCT-15 colon
[18] = system: SK-MEL-28 melanoma
[19] = system: RPMI-8226 leukemia
[20] = system: SR leukemia
[21] = system: HT29 colon
[22] = system: M14 melanoma
[23] = system: KM12 colon
[24] = system: DU-145 prostate
[25] = system: SK-MEL-5 melanoma
[26] = system: SF-268 CNS
[27] = system: LOX IMVI melanoma
[28] = system: MDA-MB-435
[29] = system: UACC-62 melanoma
[30] = system: SN12C renal
[31] = system: UO-31 renal
[32] = system: CAKI-1 renal
[33] = system: IGROV1 ovarian
[34] = system: OVCAR-8 ovarian
[35] = system: MDA-MB-231 breast
[36] = system: UACC-257 melanoma
[37] = system: MOLT-4 leukemia
[38] = system: SF-539 CNS
[39] = system: SNB-19 CNS
[40] = system: HL-60(TB) leukemia
[41] = system: NCI-H460 lung
[42] = system: HOP-92 NSCLC
[43] = system: EKVX NSCLC
[44] = system: NCI-H23 lung
[45] = system: T-47D breast
[46] = system: HS 578T breast
[47] = system: A498 renal
[48] = system: 786-0 renal
[49] = system: PC-3 prostate
[50] = system: SW-620 colon
[51] = system: SF-295 CNS
[52] = system: CCRF-CEM leukemia
[53] = system: COLO 205 colon
[54] = system: SNB-75 CNS
[55] = system: K-562 leukemia
[56] = system: NCI-H522 lung
[57] = system: SK-OV-3 ovarian
[58] = system: TK-10 renal

CC1=C(C)C(=O)C(NCCN2CCOCC2)=C(Br)C1=O showed a GI50 [1] of 2.93 µM, a TGI [1] of 10.9 µM and a GI50 [2] of 15.3 µM. For the same molecule, the TGI [2] was 28.7 µM, the GI50 [3] was 0.222 µM and the TGI [3] was 0.885 µM. It also gave a GI50 [4] of 17.4 µM, a TGI [4] of 34 µM and a GI50 [5] of 2.25 µM. It also gave a TGI [5] of 5.37 µM, a GI50 [6] of 12 µM and a TGI [6] of 25.2 µM. It also gave a GI50 [7] of 12.1 µM, a TGI [7] of 26.7 µM and a GI50 [8] of 5.02 µM. It also gave a TGI [8] of 17.6 µM, a GI50 [9] of 3.66 µM and a TGI [9] of 15.2 µM. For the same molecule, the GI50 [10] was 2.1 µM, the TGI [10] was 7.16 µM and the GI50 [11] was 13.7 µM. It also gave a TGI [11] of 26.6 µM, a GI50 [12] of 13.8 µM and a TGI [12] of 26.8 µM. The GI50 [13] was 12.7 µM, the TGI [13] was 25.3 µM and the GI50 [14] was 6.43 µM. It also gave a TGI [14] of 19.3 µM, a GI50 [15] of 14.6 µM and a TGI [15] of 28.1 µM. It also gave a GI50 [16] of 11.7 µM, a TGI [16] of 24.2 µM and a GI50 [17] of 15.9 µM. For the same molecule, the TGI [17] was 30.9 µM, the GI50 [18] was 14.5 µM and the TGI [18] was 28 µM. The GI50 [19] was 13.9 µM, the TGI [19] was 55 µM and the GI50 [20] was 19.2 µM. It also gave a TGI [20] of 66.7 µM, a GI50 [21] of 16 µM and a TGI [21] of 31.3 µM. The GI50 [22] was 13.6 µM, the TGI [22] was 26.7 µM and the GI50 [23] was 16.7 µM. It also gave a TGI [23] of 39.6 µM, a GI50 [24] of 12.7 µM and a TGI [24] of 25.7 µM. The GI50 [25] was 11.6 µM, the TGI [25] was 23.8 µM and the GI50 [26] was 12.8 µM. It also gave a TGI [26] of 32 µM, a GI50 [27] of 2.33 µM and a TGI [27] of 8.36 µM. For the same molecule, the GI50 [28] was 1.81 µM, the TGI [28] was 3.35 µM and the GI50 [29] was 5.78 µM. It also gave a TGI [29] of 18.4 µM, a GI50 [30] of 14.9 µM and a TGI [30] of 28.2 µM. For the same molecule, the GI50 [31] was 11 µM, the TGI [31] was 23.2 µM and the GI50 [32] was 10.7 µM. The TGI [32] was 23.3 µM, the GI50 [33] was 10.5 µM and the TGI [33] was 22.9 µM. The GI50 [34] was 3.84 µM, the TGI [34] was 15.8 µM and the GI50 [35] was 5.65 µM. It also gave a TGI [35] of 18.7 µM, a GI50 [36] of 2.55 µM and a TGI [36] of 7 µM. The GI50 [37] was 5.35 µM, the TGI [37] was 32.8 µM and the GI50 [38] was 17 µM. The TGI [38] was 31.5 µM, the GI50 [39] was 16.3 µM and the TGI [39] was 30.5 µM. For the same molecule, the GI50 [40] was 2.46 µM, the TGI [40] was 7.24 µM and the GI50 [41] was 16.1 µM. It also gave a TGI [41] of 34.2 µM, a GI50 [42] of 13.3 µM and a TGI [42] of 28 µM. The GI50 [43] was 12.8 µM, the TGI [43] was 25.9 µM and the GI50 [44] was 3.84 µM. The TGI [44] was 16.3 µM, the GI50 [45] was 2.01 µM and the TGI [45] was 4.74 µM. The GI50 [46] was 9.04 µM, the TGI [46] was 34.6 µM and the GI50 [47] was 19.2 µM. It also gave a TGI [47] of 34 µM, a GI50 [48] of 17.8 µM and a TGI [48] of 32.1 µM. It also gave a GI50 [49] of 16.9 µM, a TGI [49] of 50.6 µM and a GI50 [50] of 2.94 µM. It also gave a TGI [50] of 14 µM, a GI50 [51] of 17.8 µM and a TGI [51] of 31.9 µM. The GI50 [52] was 3.44 µM, the TGI [52] was > 100 µM and the GI50 [53] was 17.9 µM. It also gave a TGI [53] of 33.6 µM, a GI50 [54] of 18.5 µM and a TGI [54] of 34.2 µM. It also gave a GI50 [55] of 3.3 µM, a TGI [55] of 61.9 µM and a GI50 [56] of 3.01 µM. For the same molecule, the TGI [56] was 11.7 µM, the GI50 [57] was 12.5 µM and the TGI [57] was 25.2 µM. The GI50 [58] was 19.2 µM and the TGI [58] was 33.3 µM.
O=c1cc(-c2ccccc2)oc2cc(OCCCCNCc3ccccc3)cc(O)c12 was tested, and the GI50 [1] was 4.28 µM, the TGI [1] was 17.2 µM and the GI50 [2] was 2.3 µM. For the same molecule, the TGI [2] was 5.74 µM, the GI50 [3] was 2.55 µM and the TGI [3] was 11.1 µM. For the same molecule, the GI50 [4] was 7.94 µM, the TGI [4] was 21.1 µM and the GI50 [5] was 2.19 µM. For the same molecule, the TGI [5] was 7.29 µM, the GI50 [6] was 6.11 µM and the TGI [6] was 19.1 µM. It also gave a GI50 [7] of 13.5 µM, a TGI [7] of 32 µM and a GI50 [8] of 8.92 µM. It also gave a TGI [8] of 23.6 µM, a GI50 [9] of 3.43 µM and a TGI [9] of 14.9 µM. It also gave a GI50 [10] of 12 µM, a TGI [10] of 25 µM and a GI50 [11] of 13.2 µM. The TGI [11] was 26.7 µM, the GI50 [12] was 12.2 µM and the TGI [12] was 26.9 µM. It also gave a GI50 [13] of 1.91 µM, a TGI [13] of 10.1 µM and a GI50 [14] of 19 µM. The TGI [14] was 35.7 µM, the GI50 [15] was 13.2 µM and the TGI [15] was 27.5 µM. It also gave a GI50 [16] of 16.3 µM, a TGI [16] of 30.2 µM and a GI50 [17] of 3.48 µM. For the same molecule, the TGI [17] was 12.8 µM, the GI50 [18] was 3.24 µM and the TGI [18] was 9.38 µM. The GI50 [19] was 2.25 µM, the TGI [19] was 6.98 µM and the GI50 [20] was 1.79 µM. The TGI [20] was 4.63 µM, the GI50 [21] was 2.95 µM and the TGI [21] was 12 µM. The GI50 [22] was 2.02 µM, the TGI [22] was 4.48 µM and the GI50 [23] was 5.7 µM. It also gave a TGI [23] of 18.9 µM, a GI50 [24] of 12.2 µM and a TGI [24] of 24.5 µM. For the same molecule, the GI50 [25] was 12.2 µM, the TGI [25] was 24.7 µM and the GI50 [26] was 10.6 µM. The TGI [26] was 27 µM, the GI50 [27] was 3.13 µM and the TGI [27] was 11.2 µM. The GI50 [28] was 7.98 µM, the TGI [28] was 20.5 µM and the GI50 [29] was 2.16 µM. The TGI [29] was 4.79 µM, the GI50 [30] was 12.7 µM and the TGI [30] was 28 µM. For the same molecule, the GI50 [31] was 6.11 µM, the TGI [31] was 21.1 µM and the GI50 [32] was 10.2 µM. For the same molecule, the TGI [32] was 22.3 µM, the GI50 [33] was 11.4 µM and the TGI [33] was 26.6 µM. The GI50 [34] was 12.6 µM, the TGI [34] was 28.7 µM and the GI50 [35] was 7.02 µM. The TGI [35] was 21.3 µM, the GI50 [36] was 2.99 µM and the TGI [36] was 9.75 µM. For the same molecule, the GI50 [37] was 2.12 µM, the TGI [37] was 9.43 µM and the GI50 [38] was 11.7 µM. For the same molecule, the TGI [38] was 25.3 µM, the GI50 [39] was 13.3 µM and the TGI [39] was 27.9 µM. The GI50 [40] was 1.12 µM, the TGI [40] was 3.43 µM and the GI50 [41] was 4.96 µM. For the same molecule, the TGI [41] was 17.4 µM, the GI50 [42] was 3.73 µM and the TGI [42] was 21.1 µM. For the same molecule, the GI50 [43] was 12.7 µM, the TGI [43] was 25.9 µM and the GI50 [44] was 13.8 µM. For the same molecule, the TGI [44] was 27.4 µM, the GI50 [45] was 13.7 µM and the TGI [45] was 33.1 µM. It also gave a GI50 [46] of 11 µM, a TGI [46] of 32 µM and a GI50 [47] of 19.8 µM. It also gave a TGI [47] of 36.8 µM, a GI50 [48] of 4.54 µM and a TGI [48] of 18.6 µM. It also gave a GI50 [49] of 5.01 µM, a TGI [49] of 19.9 µM and a GI50 [50] of 10.2 µM. It also gave a TGI [50] of 23.4 µM, a GI50 [51] of 11.7 µM and a TGI [51] of 24.4 µM. It also gave a GI50 [52] of 2.89 µM, a TGI [52] of 15.8 µM and a GI50 [53] of 5.13 µM. It also gave a TGI [53] of 18.4 µM, a GI50 [54] of 10.5 µM and a TGI [54] of 22.4 µM. The GI50 [55] was 1.97 µM, the TGI [55] was 7.35 µM and the GI50 [56] was 13.1 µM. For the same molecule, the TGI [56] was 29.3 µM, the GI50 [57] was 14.6 µM and the TGI [57] was 28 µM. It also gave a GI50 [58] of 15.5 µM and a TGI [58] of 29.5 µM.
